One assay deals with PAF receptor. The conditions noted are these: cited from earlier work.
For the next assay, the target named is T1, 5-LO (Rattus norvegicus, UniProt P12527).
T1 sequence (P12527 1-673): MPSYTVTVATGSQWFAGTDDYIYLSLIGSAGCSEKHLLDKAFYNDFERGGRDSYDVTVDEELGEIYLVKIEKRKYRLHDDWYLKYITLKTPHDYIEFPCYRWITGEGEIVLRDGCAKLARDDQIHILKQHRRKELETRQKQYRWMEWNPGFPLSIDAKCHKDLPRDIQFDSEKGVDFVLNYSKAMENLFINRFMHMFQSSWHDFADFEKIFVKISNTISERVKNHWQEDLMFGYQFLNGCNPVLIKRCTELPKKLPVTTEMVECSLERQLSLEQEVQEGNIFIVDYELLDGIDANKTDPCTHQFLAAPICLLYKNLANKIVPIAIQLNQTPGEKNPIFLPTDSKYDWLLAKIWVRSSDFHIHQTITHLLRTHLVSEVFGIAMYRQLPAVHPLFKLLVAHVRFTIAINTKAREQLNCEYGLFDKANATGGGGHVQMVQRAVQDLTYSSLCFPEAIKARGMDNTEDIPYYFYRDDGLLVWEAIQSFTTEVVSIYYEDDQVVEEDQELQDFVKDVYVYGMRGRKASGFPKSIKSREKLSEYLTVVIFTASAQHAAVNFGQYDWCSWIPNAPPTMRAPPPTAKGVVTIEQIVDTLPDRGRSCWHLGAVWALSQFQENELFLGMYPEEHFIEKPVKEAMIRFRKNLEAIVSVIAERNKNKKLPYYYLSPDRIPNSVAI
As to the kind of experiment: 5-LO inhibition (Table 1). It is filed as biochemical. Conditions: for inhibition at 3 µM: read-out: 5-LO, percent @ 3 μM.

pIC50: −log10 of the molar value.

For the molecule `CCCCCCCCCCCCCCCCCCNC(=O)OCC(COP(=O)([O-])OCC[n+]1ccsc1)OC` (racemic) [CV-3988, rac-3-(N-n-octadecyl-carbamoyloxy-w-methoxypropyl-2-thiazolioethyl phosphate], the “PAF receptor antagonist activity” value in the assay on PAF receptor is “PAF receptor antagonist properties”.

For `CCCOc1c(OC)cc([C@H]2CC[C@H](c3cc(OC)c(OC)c(OC)c3)O2)cc1S(C)(=O)=O` (relative stereo) [L-659,989, trans-2-(3-methoxy-4-propoxyphenyl-5-methylsulfonyl)-5-(3,4,5-trimethoxyphenyl)tetrahydrofuran], the “PAF receptor antagonist activity” value with PAF receptor is given as “orally active, potent, competitive PAF receptor antagonist”. In addition, the “equilibrium inhibition constant relative to trans-L-652,731” value with PAF receptor (greater than that of trans-L-652,731) is 10 times.

Turning to `COc1cc([C@H]2SC[C@H](c3cc(OC)c(OC)c(OC)c3)S2)cc(NC(=S)N(C)O)c1OC` (relative stereo) [compound 2], the pIC50 (as a rule, −log10 of the IC50, conventionally taken in molar units) against 5-LO was 6.55.

Take `COc1cc([C@H]2CS[C@H](c3cc(OC)c(OCCSc4ccc(O)cc4)c([N+](=O)[O-])c3)S2)cc(OC)c1OC` (relative stereo) [compound 7, Trans-2-[4-{2-(4'-hydroxyphenylthio)ethoxy}-3-methoxy-5-nitrophenyl]-4-(3,4,5-trimethoxyphenyl)-1,3-dithiolane]: the inhibition at 3 µM at 5-LO amounted to 57%.

`COc1cc([C@H]2SC[C@H](c3cc(OC)c(OC)c(OC)c3)S2)cc(N)c1OCCSc1ccc(O)cc1` (relative stereo) [compound 8, Trans-2-[5-amino-4-{2-(4'-hydroxyphenylthio)ethoxy}-3-methoxyphenyl]-4-(3,4,5-trimethoxyphenyl)-1,3-dithiolane]: the inhibition at 3 µM on 5-LO came to 41%.

`COc1cc([C@H]2SC[C@H](c3cc(OC)c(OC)c(OC)c3)S2)cc(NC(=O)N(C)O)c1OCCSc1ccc(O)cc1` (relative stereo) [compound 9, Trans-2-[5-(N-hydroxy-N-methylureidyl)-4-{2-(4'-hydroxy-phenylthio)ethoxy}-3-methoxyphenyl]-4-(3,4,5-trimethoxyphenyl)-1,3-dithiolane] showed a pIC50 on 5-LO of 6.92.

Take `COc1cc([C@H]2SC[C@H](c3cc(OC)c(OC)c(OC)c3)S2)cc(NC(=O)N(O)c2ccc(Cl)cc2)c1OCCSc1ccc(O)cc1` (relative stereo) [compound 10, Trans-2-[5-(N-(p-chlorophenyl)-N-hydroxyureidyl)-4-{2-(4'-hydroxy-phenylthio)ethoxy}-3-methoxyphenyl]-4-(3,4,5-trimethoxyphenyl)-1,3-dithiolane]: the inhibition at 3 µM on 5-LO was found to be 64%.

Regarding `COc1cc([C@H]2SC[C@H](c3cc(OC)c(OC)c(OC)c3)S2)cc(NC(=O)N(C)O)c1OCCSc1ccc(C#N)cc1` (relative stereo) [compound 13, Trans-2-[5-(N-hydroxy-N-methylureidyl)-4-{2-(4'-cyano-phenylthio)ethoxy}-3-methoxyphenyl]-4-(3,4,5-trimethoxyphenyl)-1,3-dithiolane], at 5-LO, the pIC50 is 7.04.

Turning to `COc1cc([C@H]2CS[C@H](c3cc(OC)c(OCCSc4ccc(O)cc4)c(N(C)C)c3)S2)cc(OC)c1OC` (relative stereo) [compound 14, Trans-2-[5-(N,N-dimethylamino)-4-{2-(4'-hydroxyphenylthio)ethoxy}-3-methoxyphenyl]-4-(3,4,5-trimethoxyphenyl)-1,3-dithiolane], the inhibition at 3 µM at 5-LO came out at 25%.

Consider `C=CCC1=C[C@@]2(OC)C(=CC1=O)O[C@H](c1ccc(OC)c(OC)c1)[C@H]2C` [kadsurenone], for which the “PAF receptor antagonist activity” value in the assay on PAF receptor is “potent, specific and competitive inhibitor of PAF activity at the receptor level”.

The record behind these values is patent US5530141A, “2,4-diaryl-1,3-dithiolanes; 2,4-diaryl-1,3-dioxolanes; 2,4-diaryl-1,3-oxathiolanes; and 2,5-diaryl-1,3-oxathiolanes for the treatment of disorders mediated by platelet activating factor or products of 5-lipoxygenase” (Center for Innovative Technology, priority 1992, dated 1996).
